# Results published in ChEMBL document CHEMBL1157012, “Neural computational prediction of oral drug absorption based on CODES 2D descriptors” (Eur J Med Chem, 2010).
# Test: Human intestinal absorption in po dosed human
# Details: in vivo
compound,measurement,value
CC(C)(C)NCC(O)COc1cccc2c1CC(O)C(O)C2 (stereo unspecified) [NADOLOL],Fa,57%
CCc1nn(CCCN2CCN(c3cccc(Cl)c3)CC2)c(=O)n1CCOc1ccccc1 [NEFAZODONE],Fa,100%
CC#Cc1cn([C@@H]2O[C@H](CO)[C@@H](O)[C@@H]2O)c(=O)[nH]c1=O [NETIVUDINE],Fa,28%
O=C(O)c1cccnc1 [NIACIN],Fa,88%
COC(=O)C1=C(C)NC(C)=C(C(=O)OCC(C)C)C1c1ccccc1[N+](=O)[O-] (stereo unspecified) [NISOLDIPINE],Fa,89%
CCOC(=O)C1=C(C)NC(C)=C(C(=O)OC)C1c1cccc([N+](=O)[O-])c1 (stereo unspecified) [NITRENDIPINE],Fa,88%
CNC(=C[N+](=O)[O-])NCCSCc1csc(CN(C)C)n1 [NIZATIDINE],Fa,90%
CC1COc2c(N3CCN(C)CC3)c(F)cc3c(=O)c(C(=O)O)cn1c23 (stereo unspecified) [OFLOXACIN],Fa,100%
O=C(O)c1cc(/N=N/c2ccc(O)c(C(=O)O)c2)ccc1O [OLSALAZINE],Fa,24%
Cc1nccn1CC1CCc2c(c3ccccc3n2C)C1=O (stereo unspecified) [ONDANSETRON],Fa,100%
C[C@@H]1O[C@@H](O[C@H]2C[C@@H](O)[C@]3(CO)[C@H]4[C@H](O)C[C@]5(C)[C@@H](C6=CC(=O)OC6)CC[C@]5(O)[C@@H]4CC[C@]3(O)C2)[C@H](O)[C@H](O)[C@H]1O [OUABAIN],Fa,1%
O=c1[nH]c2ccccc2n1CCCN1CCN(C(c2ccccc2)c2ccccc2)CC1 [OXATOMIDE],Fa,100%
C=CCOc1ccccc1OCC(O)CNC(C)C (stereo unspecified) [OXPRENOLOL],Fa,95%
COc1cccc(C(=O)CCN[C@@H](C)[C@H](O)c2ccccc2)c1 [OXYFEDRINE],Fa,84%
CC(C)NCC(O)COc1ccc(CCNC(=O)NC(C)C)cc1 (stereo unspecified) [PAFENOLOL],Fa,29%
CCn1cc(C(=O)O)c(=O)c2cc(F)c(N3CCN(C)CC3)cc21 [PEFLOXACIN],Fa,100%
CC1(C)S[C@@H]2[C@H](NC(=O)Cc3ccccc3)C(=O)N2[C@H]1C(=O)O [PENICILLIN G],Fa,30%
CC1(C)S[C@@H]2[C@H](NC(=O)COc3ccccc3)C(=O)N2[C@H]1C(=O)O [PENICILLIN V],Fa,59%
CCN(CC)CCC1(c2ccccc2)CCC(=O)NC1=O (stereo unspecified) [PHENGLUTARIMIDE],Fa,100%
O=C1NC(=O)C(c2ccccc2)(c2ccccc2)N1 [PHENYTOIN],Fa,90%
CC(C)NCC(O)COc1cccc2[nH]ccc12 (stereo unspecified) [PINDOLOL],Fa,87%
CC(C)(C)NCC(O)c1ccc(O)c(CO)n1 (stereo unspecified) [PIRBUTEROL],Fa,60%
CN1C(C(=O)Nc2ccccn2)=C(O)c2ccccc2S1(=O)=O [PIROXICAM],Fa,100%
CCc1[nH]c(=O)[nH]c1C(=O)c1ccncc1 [PIROXIMONE],Fa,80%
CC[C@H](C)C(=O)O[C@H]1C[C@H](O)C=C2C=C[C@H](C)[C@H](CC[C@@H](O)C[C@@H](O)CC(=O)O)[C@H]21 [PRAVASTATIN],Fa,34%
O=C(C1CCCCC1)N1CC(=O)N2CCc3ccccc3C2C1 (stereo unspecified) [PRAZIQUANTEL],Fa,100%
COc1cc2nc(N3CCN(C(=O)c4ccco4)CC3)nc(N)c2cc1OC [PRAZOSIN],Fa,86%
C[C@]12C=CC(=O)C=C1CC[C@@H]1[C@@H]2[C@@H](O)C[C@@]2(C)[C@H]1CC[C@]2(O)C(=O)CO [PREDNISOLONE],Fa,99%
CCCOC(C(=O)OC1CCN(C)CC1)(c1ccccc1)c1ccccc1 [PROPIVERINE],Fa,84%
CCCc1cc(=O)[nH]c(=S)[nH]1 [PROPYLTHIOURACIL],Fa,76%
C=C[C@H]1C[N@@]2CC[C@H]1C[C@@H]2[C@@H](O)c1ccnc2ccc(OC)cc12 [QUINIDINE],Fa,81%
Cn1c(=O)c2c(ncn2CCCNCC(O)c2cc(O)cc(O)c2)n(C)c1=O (stereo unspecified) [REPROTEROL],Fa,60%
NC(=O)c1ncn([C@@H]2O[C@H](CO)[C@@H](O)[C@H]2O)n1 [RIBAVIRIN],Fa,33%
Oc1ccc(C(O)C2CCCCN2)cc1O (stereo unspecified) [RIMITEROL],Fa,48%
O=C1NS(=O)(=O)c2ccccc21 [SACCHARIN],Fa,88%
O=C(O)c1ccccc1O [SALICYLIC ACID],Fa,100%
O=c1[nH]c(=O)n([C@@H]2O[C@H](CO)[C@@H](O)[C@@H]2O)cc1/C=C/Br [SORIVUDINE],Fa,82%
CC(C)NCC(O)c1ccc(NS(C)(=O)=O)cc1 (stereo unspecified) [SOTALOL],Fa,95%
CC(=O)S[C@@H]1CC2=CC(=O)CC[C@]2(C)[C@H]2CC[C@@]3(C)[C@@H](CC[C@@]34CCC(=O)O4)[C@H]12 [SPIRONOLACTONE],Fa,73%
Cc1cn([C@H]2C=C[C@@H](CO)O2)c(=O)[nH]c1=O [STAVUDINE],Fa,100%
CN1C(C(=O)Nc2nccs2)=C(O)c2ccccc2S1(=O)=O [SUDOXICAM],Fa,100%
O=C(O)c1cc(/N=N/c2ccc(S(=O)(=O)Nc3ccccn3)cc2)ccc1O [SULFASALAZINE],Fa,59%
CCN1CCCC1CNC(=O)c1cc(S(N)(=O)=O)ccc1OC (stereo unspecified) [SULPIRIDE],Fa,44%
CCN1CCCC1CNC(=O)c1cc(S(=O)(=O)CC)ccc1OC (stereo unspecified) [SULTOPRIDE],Fa,89%
NC(=O)N1C(=O)/C(=C(\O)c2cccs2)c2cc(Cl)ccc21 [TENIDAP],Fa,89%
CN1C(C(=O)Nc2ccccn2)=C(O)c2sccc2S1(=O)=O [TENOXICAM],Fa,100%
COc1cc2nc(N3CCN(C(=O)C4CCCO4)CC3)nc(N)c2cc1OC (stereo unspecified) [TERAZOSIN],Fa,90%
CC(C)(C)NCC(O)c1cc(O)cc(O)c1 (stereo unspecified) [TERBUTALINE],Fa,62%
C[C@]12CC[C@H]3[C@@H](CCC4=CC(=O)CC[C@@]43C)[C@@H]1CC[C@@H]2O [TESTOSTERONE],Fa,100%
Cn1c(=O)c2[nH]cnc2n(C)c1=O.O [THEOPHYLLINE],Fa,100%
Cc1ccsc1C(=CCCN1CCC[C@@H](C(=O)O)C1)c1sccc1C [TIAGABINE],Fa,90%
CC(C)(C)NC[C@H](O)COc1nsnc1N1CCOCC1 [TIMOLOL],Fa,95%
COc1cc(C)c([S+](C)[O-])cc1OC (stereo unspecified) [TOLMESOXIDE],Fa,98%
CC1(C)O[C@@H]2[C@@H](CO[C@@]3(COS(N)(=O)=O)OC(C)(C)O[C@@H]23)O1 [TOPIRAMATE],Fa,86%
CN(C)CCOc1ccc(/C(=C(/CCCl)c2ccccc2)c2ccccc2)cc1 [TOREMIFENE],Fa,100%
Cc1cccc(Nc2ccncc2S(=O)(=O)NC(=O)NC(C)C)c1 [TORSEMIDE],Fa,96%
COc1cccc(C2(O)CCCCC2CN(C)C)c1 (stereo unspecified) [TRAMADOL],Fa,90%
COc1cc(Cc2cnc(N)nc2N)cc(OC)c1OC [TRIMETHOPRIM],Fa,97%
N[C@@H]1[C@H]2CN(c3nc4c(cc3F)c(=O)c(C(=O)O)cn4-c3ccc(F)cc3F)C[C@@H]12 [TROVAFLOXACIN],Fa,88%
CCCC(CCC)C(=O)[O-].[Na+] [VALPROATE SODIUM],Fa,100%
COc1ccc(C(CN(C)C)C2(O)CCCCC2)cc1 (stereo unspecified) [VENLAFAXINE],Fa,97%
C=CC(N)CCC(=O)O (stereo unspecified) [VIGABATRIN],Fa,58%
CCOc1ccccc1OCC1CNCCO1 (stereo unspecified) [VILOXAZINE],Fa,98%
CC(C(=O)O)c1ccc(C2CCCC(=NO)C2)cc1 (stereo unspecified) [XIMOPROFEN],Fa,98%
Cc1cn([C@H]2C[C@H](N=[N+]=[N-])[C@@H](CO)O2)c(=O)[nH]c1=O [ZIDOVUDINE],Fa,100%
O=C1Cc2cc(CCN3CCN(c4nsc5ccccc45)CC3)c(Cl)cc2N1 [ZIPRASIDONE],Fa,60%
